Test results from PubChem BioAssay (NCI).
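48-hour exposure; five concentrations; linearly interpolated endpoints. TGI marks complete inhibition of growth.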

Experiments:
Assay in all cases: DTP human tumour cell line panel, 48 h
RPMI-8226 leukemia = system: RPMI-8226 leukemia
MDA-N = system: MDA-N
NCI-H226 lung = system: NCI-H226 lung
PC-3 prostate = system: PC-3 prostate
SF-268 CNS = system: SF-268 CNS
UO-31 renal = system: UO-31 renal
A549 NSCLC = system: A549 NSCLC
HOP-62 NSCLC = system: HOP-62 NSCLC
HOP-92 NSCLC = system: HOP-92 NSCLC
U251 CNS = system: U251 CNS
M14 melanoma = system: M14 melanoma
OVCAR-5 ovarian = system: OVCAR-5 ovarian
HCT-116 colon = system: HCT-116 colon
SN12C renal = system: SN12C renal
SNB-75 CNS = system: SNB-75 CNS
NCI-H460 lung = system: NCI-H460 lung
UACC-62 melanoma = system: UACC-62 melanoma
A498 renal = system: A498 renal
RXF 393 renal = system: RXF 393 renal
SK-MEL-5 melanoma = system: SK-MEL-5 melanoma
MALME-3M melanoma = system: MALME-3M melanoma
IGROV1 ovarian = system: IGROV1 ovarian
OVCAR-4 ovarian = system: OVCAR-4 ovarian
OVCAR-8 ovarian = system: OVCAR-8 ovarian
HS 578T breast = system: HS 578T breast
HL-60(TB) leukemia = system: HL-60(TB) leukemia
K-562 leukemia = system: K-562 leukemia
ACHN renal = system: ACHN renal
EKVX NSCLC = system: EKVX NSCLC
SF-539 CNS = system: SF-539 CNS
MOLT-4 leukemia = system: MOLT-4 leukemia
HCT-15 colon = system: HCT-15 colon
LOX IMVI melanoma = system: LOX IMVI melanoma
786-0 renal = system: 786-0 renal
DU-145 prostate = system: DU-145 prostate
MCF7 breast = system: MCF7 breast
MDA-MB-435 = system: MDA-MB-435
TK-10 renal = system: TK-10 renal
OVCAR-3 ovarian = system: OVCAR-3 ovarian
NCI/ADR-RES ovarian = system: NCI/ADR-RES ovarian
HT29 colon = system: HT29 colon
SK-OV-3 ovarian = system: SK-OV-3 ovarian
SNB-19 CNS = system: SNB-19 CNS
CAKI-1 renal = system: CAKI-1 renal
SW-620 colon = system: SW-620 colon
SR leukemia = system: SR leukemia
NCI-H23 lung = system: NCI-H23 lung
MDA-MB-231 breast = system: MDA-MB-231 breast
SK-MEL-2 melanoma = system: SK-MEL-2 melanoma
COLO 205 colon = system: COLO 205 colon
KM12 colon = system: KM12 colon
T-47D breast = system: T-47D breast
BT-549 breast = system: BT-549 breast
SK-MEL-28 melanoma = system: SK-MEL-28 melanoma
NCI-H522 lung = system: NCI-H522 lung
SF-295 CNS = system: SF-295 CNS
CCRF-CEM leukemia = system: CCRF-CEM leukemia
UACC-257 melanoma = system: UACC-257 melanoma
HCC-2998 colon = system: HCC-2998 colon

With [O-][N+]1(CC[N+]2([O-])CCCCC2)CCCCC1 the TGI (RPMI-8226 leukemia) was > 100 µM, the TGI (MDA-N) was > 100 µM and the TGI (NCI-H226 lung) was > 100 µM. The TGI (PC-3 prostate) was > 100 µM, the TGI (SF-268 CNS) was > 100 µM and the TGI (UO-31 renal) was > 100 µM. The TGI (A549 NSCLC) was > 100 µM, the TGI (HOP-62 NSCLC) was > 100 µM and the TGI (HOP-92 NSCLC) was > 100 µM. For the same compound, the TGI (U251 CNS) was > 100 µM, the TGI (M14 melanoma) was > 100 µM and the TGI (OVCAR-5 ovarian) was > 100 µM. The TGI (HCT-116 colon) was > 100 µM, the TGI (SN12C renal) was > 100 µM and the TGI (SNB-75 CNS) was > 100 µM. The TGI (NCI-H460 lung) was > 100 µM, the TGI (UACC-62 melanoma) was > 100 µM and the TGI (A498 renal) was > 100 µM. The TGI (RXF 393 renal) was > 100 µM, the TGI (SK-MEL-5 melanoma) was > 100 µM and the TGI (MALME-3M melanoma) was > 100 µM. The TGI (IGROV1 ovarian) was > 100 µM, the TGI (OVCAR-4 ovarian) was > 100 µM and the TGI (OVCAR-8 ovarian) was > 100 µM. The TGI (HS 578T breast) was > 100 µM, the TGI (HL-60(TB) leukemia) was > 100 µM and the TGI (K-562 leukemia) was > 100 µM. The TGI (ACHN renal) was > 100 µM, the TGI (EKVX NSCLC) was > 100 µM and the TGI (SF-539 CNS) was > 100 µM. The TGI (MOLT-4 leukemia) was > 100 µM, the TGI (HCT-15 colon) was > 100 µM and the TGI (LOX IMVI melanoma) was > 100 µM. For the same compound, the TGI (786-0 renal) was > 100 µM, the TGI (DU-145 prostate) was > 100 µM and the TGI (MCF7 breast) was > 100 µM. For the same compound, the TGI (MDA-MB-435) was > 100 µM, the TGI (TK-10 renal) was > 100 µM and the TGI (OVCAR-3 ovarian) was > 100 µM. The TGI (NCI/ADR-RES ovarian) was > 100 µM, the TGI (HT29 colon) was > 100 µM and the TGI (SK-OV-3 ovarian) was > 100 µM. For the same compound, the TGI (SNB-19 CNS) was > 100 µM, the TGI (CAKI-1 renal) was > 100 µM and the TGI (SW-620 colon) was > 100 µM. The TGI (SR leukemia) was > 100 µM, the TGI (NCI-H23 lung) was > 100 µM and the TGI (MDA-MB-231 breast) was > 100 µM. For the same compound, the TGI (SK-MEL-2 melanoma) was > 100 µM, the TGI (COLO 205 colon) was > 100 µM and the TGI (KM12 colon) was > 100 µM. For the same compound, the TGI (T-47D breast) was > 100 µM, the TGI (BT-549 breast) was > 100 µM and the TGI (SK-MEL-28 melanoma) was > 100 µM. The TGI (NCI-H522 lung) was > 100 µM, the TGI (SF-295 CNS) was > 100 µM and the TGI (CCRF-CEM leukemia) was > 100 µM.
COC(=O)NNC(c1ccc(Cl)cc1)c1ccc(Cl)cc1 gave a TGI (RPMI-8226 leukemia) of 52 µM, a TGI (MDA-N) of 45.6 µM and a TGI (NCI-H226 lung) of 35.3 µM. The TGI (UACC-257 melanoma) was 39 µM, the TGI (PC-3 prostate) was 30.5 µM and the TGI (SF-268 CNS) was 49 µM. It also gave a TGI (UO-31 renal) of 25.2 µM, a TGI (A549 NSCLC) of 32.8 µM and a TGI (U251 CNS) of 40.3 µM. For the same compound, the TGI (HCC-2998 colon) was 27.6 µM, the TGI (M14 melanoma) was 31.9 µM and the TGI (OVCAR-5 ovarian) was 40.3 µM. It also gave a TGI (HCT-116 colon) of 30.3 µM, a TGI (SN12C renal) of 35.2 µM and a TGI (SNB-75 CNS) of 69 µM. It also gave a TGI (NCI-H460 lung) of 35.2 µM, a TGI (UACC-62 melanoma) of 30.9 µM and a TGI (A498 renal) of 34.9 µM. For the same compound, the TGI (RXF 393 renal) was 23.7 µM, the TGI (SK-MEL-5 melanoma) was 31.2 µM and the TGI (MALME-3M melanoma) was 43.8 µM. For the same compound, the TGI (IGROV1 ovarian) was 34 µM, the TGI (OVCAR-4 ovarian) was 55.3 µM and the TGI (OVCAR-8 ovarian) was 42.4 µM. The TGI (HS 578T breast) was 48.1 µM, the TGI (HL-60(TB) leukemia) was 64.4 µM and the TGI (K-562 leukemia) was 53 µM. The TGI (EKVX NSCLC) was 40 µM, the TGI (SF-539 CNS) was 39 µM and the TGI (MOLT-4 leukemia) was 55.9 µM. It also gave a TGI (HCT-15 colon) of 31.1 µM, a TGI (LOX IMVI melanoma) of 32 µM and a TGI (786-0 renal) of 35 µM. The TGI (DU-145 prostate) was > 100 µM, the TGI (MCF7 breast) was 75.6 µM and the TGI (MDA-MB-435) was > 100 µM. The TGI (TK-10 renal) was 33.6 µM, the TGI (OVCAR-3 ovarian) was 31.9 µM and the TGI (NCI/ADR-RES ovarian) was 39.8 µM. For the same compound, the TGI (HT29 colon) was 34.2 µM, the TGI (SK-OV-3 ovarian) was 58.6 µM and the TGI (SNB-19 CNS) was 41.1 µM. For the same compound, the TGI (CAKI-1 renal) was 35.7 µM, the TGI (SW-620 colon) was 70 µM and the TGI (SR leukemia) was 54.8 µM. The TGI (NCI-H23 lung) was 34.6 µM, the TGI (MDA-MB-231 breast) was 25.8 µM and the TGI (SK-MEL-2 melanoma) was 26.6 µM. For the same compound, the TGI (COLO 205 colon) was 38 µM, the TGI (KM12 colon) was 37 µM and the TGI (T-47D breast) was 68.2 µM. For the same compound, the TGI (BT-549 breast) was 32.4 µM, the TGI (SK-MEL-28 melanoma) was 43 µM and the TGI (NCI-H522 lung) was 38.7 µM. The TGI (CCRF-CEM leukemia) was 54.1 µM.
